Test results from patent US20040033595A1, “Conditionally replicating vectors for inhibiting viral infections” (priority 2001, published 2004).

Experiments:
HIV = details: human, in vivo; cited from earlier work
Human CD4+ T cells = experiment: Sensitivity of human CD4+ T cells to BG and BCNU (expansion in culture); assay type: cell-based; details: for dose dependence of CD4 cell killing / toxicity: increasing dose
Description: CD14 depleted CD4+ cells were purified from peripheral blood with or without cytokine mobilization. […] Under appropriate conditions in the absence of […] and BCNU, CD4+ cells can be expanded up to 100 fold over 10 days in culture. Doses tested were 0, 0.2, 0.5, 2, 5, 10, 20, 30, and 40 μM BG and 0, 2, 5, 10, 20, 30, and 40 μM BCNU. A series of three experiments were performed.

[1] = tested on: modified U5-containing crHIV RNA; experiment: In vitro ribozyme cleavage of radiolabeled modified crHIV U5 RNA (PAGE, autoradiography); assay type: biochemical; details: target to ribozyme molar ratio 1:2, 37° C. 5 min
Description: (§1) To confirm the resistance to ribozyme cleavage of the crHIV vectors, in vitro transcription was performed. To accomplish this, the ribozyme sequences were cloned into the Xho I site of pBluescript KSII (Stratagene, La Jolla, Calif.). A 0.21 kilobase pair (kb) Bgl II fragment containing the mutated crHIV U5 region similarly was excised from the crHIV vector and inserted into the Bam HI site of pBluescript KSII. The resultant modified pBluescript KSII vectors were linearized with Bss HII prior to in vitro transcription. A similar plasmid expressing wild-type HIV U5 RNA (described in Myers et al. (1994), supra) was employed as a control. It was linearized with Eco RI prior to in vitro transcription.
(§2) Radiolabeled U5 HIV RNA and ribozyme RNA were produced by in vitro transcription of the vectors, as previously described (Dropulic' et al. (1992), supra). The radiolabeled transcripts were incubated together (at a target to ribozyme molar ratio of 1:2) in 1×transcription buffer containing 40 mM Tris-HCl, pH 7.5, 6 mM MgCl2, 2 mM Spermidine, and 10 mM NaCl. The samples were heated to 65° C., and then cooled to 37° C. for 5 min prior to the addition of stop buffer solution containing 95% formamide, 20 mM EDTA, 0.05% Bromophenol Blue, and 0.05% Xylene Cyanol FF. The products' were then resolved by denaturing polyacrylamide gel electrophoresis (PAGE), and detected by autoradiography.

wild-type U5-HIV RNA = experiment: In vitro ribozyme cleavage of radiolabeled wild-type U5 HIV RNA (PAGE, autoradiography); assay type: biochemical; details: target to ribozyme molar ratio 1:2, 37° C. 5 min
Description: as §1, §2

**Q.** Which “range virustatic in most patients” value (HIV) does the source give for `Nc1ccn([C@H]2CC[C@@H](CO)O2)c(=O)n1` [ddC] here?
**A.** 0.005-0.25 mg/kg body weight

**Q.** Which results are given for `O=NN(CCCl)C(=O)NCCCl` [BCNU, 1,3-bis(2-chloroethyl)-1-nitrosourea]?
**A.** growth delay of CD4+ cells (Human CD4+ T cells; BCNU alone): did not result in growth delay; dose dependence of CD4 cell killing / toxicity (Human CD4+ T cells): toxicity to CD4 cells increased with the BCNU dose

**Q.** With `Nc1nc(OCc2ccccc2)c2nc[nH]c2n1` [BG, O^6-benzylguanine] as the molecule, how does the “dose dependence of CD4 cell killing / toxicity” value (Human CD4+ T cells) read?
**A.** did not increase cell killing

**Q.** Which “cleavage of modified U5-containing crHIV RNA” value [1] does the source give for “CACACAACACTGATGAGGCCGAAAGGCCGAAACGGGCACA (expressed or natural sequence) [the +115 ribozyme]” here?
**A.** cleavage products were not detected

**Q.** And the “cleavage of wild-type U5-HIV RNA” value (wild-type U5-HIV RNA)?
**A.** cleavage was readily observed
